According to EP0185961A2, “1-Phenyl-imidazole-5-carboxylic acid derivatives, process for their preparation and their use as growth regulators” (HOECHST AKTIENGESELLSCHAFT, priority 1984, dated 1986):
Where two headings read alike, the source gives them in different places.

Columns and labels:
Roggen = experiment: Growth inhibition in cereals, greenhouse tray test, sprayed at 3-leaf stage; assay type: in vivo; details: % of growth increment of untreated controls; for pest or weed control at 1250 g/ha / pest or weed control at 2500 g/ha: read-out: Wuchsshemmung in % bei Roggen
Description: (§1) In Schalenversuchen im Gewächshaus werden junge Getreidepflanzen (Weizen, Gerste, Roggen) im 3-Blattstadium mit erfindungsgemäßen Verbindungen in verschiedenen Wirkstoffkonzentrationen (kg/ha) tropfnaß gespritzt. […]

Weizen = experiment: as above; assay type: in vivo; details: % of growth increment of untreated controls (100% = growth standstill); for pest or weed control at 1250 g/ha / pest or weed control at 2500 g/ha: read-out: Wuchsshemmung in % bei Weizen
Description: as §1

Gerste = experiment: as above; assay type: in vivo; details: % of growth increment of untreated controls; for pest or weed control at 1250 g/ha / pest or weed control at 2500 g/ha: read-out: Wuchsshemmung in % bei Gerste
Description: (§2) In Schalenversuchen im Gewächshaus werden junge Getreidepflanzen (Weizen, Gerste, Roggen) im 3-Blattstadium mit erfindungsgemäßen Verbindungen in verschiedenen Wirkstoffkonzentrationen (kg/ha) tropfnaß gespritzt.
(§3) Es wird außerdem die phytotoxische Wirkung der Verbindung beobachtet.

[1] = system: Getreidepflanzen (Weizen, Gerste, Roggen); experiment: Phytotoxic effect observed in the cereal growth inhibition test; assay type: in vivo; details: cereals; one cell for 2,5 and 1,25 kg/ha
Description: as §2, §3

Reispflanzen [2] = details: in vivo
Description: (§4) Reispflanzen werden in Kleinparzellen (2 m x 2 m) angezogen und im Stadium der maximalen Bestockung mit erfindungsgemäßen Verbindungen behandelt. Die Substanzen werden sowohl durch Spritzung appliziert als auch in das Wasser gegeben.
(§5) 3 Wochen nach der Behandlung wird bei allen Pflanzen der Zuwachs gemessen und die Wuchshemmung in % des Zuwachses der Kontrollpflanzen berechnet. Es wird außerdem auf eine mögliche phytotoxische Wirkung der Verbindungen geachtet.
(§6) Die Wuchshemmung wird als prozentualer Wert ermittelt, wobei 100% den Stillstand des Wachstums und 0% ein Wachstum entsprechend dem der unbehandelten Kontrollpflanzen bedeuten.

Sojabohnen [3] = details: in vivo
Description: (§7) Etwa 10 cm große Sojabohnen werden mit den Wirkstoffzubereitungen tropfnaß bespritzt. Nach 3 Wochen wird bonitiert.
as §6

Sojabohnen [4] = experiment: Growth inhibition in soybeans; details: for pest or weed control at 2500 g/ha: Glycine max, 504 h, read-out: Wuchsshemmung (%); for Phytotox. Wirkung: soybeans, 2,5 kg/ha
Description: as §7, §6

Reispflanzen [5] = experiment: Growth inhibition in paddy rice, small plots; details: for pest or weed control at 620 g/ha / pest or weed control at 1250 g/ha: Oryza sativa, 504 h, read-out: Wuchsshemmung (%); for Phytotox. Wirkung: paddy rice, one cell for 1,25 and 0,62 kg/ha
Description: as §4, §5, §6

| Compound | Wuchsshemmung in % bei Roggen (Roggen; 1,25 kg/ha) | Wuchsshemmung in % bei Roggen (Roggen; 2,5 kg/ha) | Wuchsshemmung in % bei Weizen (Weizen; 1,25 kg/ha) | Wuchsshemmung in % bei Weizen (Weizen; 2,5 kg/ha) | Wuchsshemmung in % bei Gerste (Gerste; 1,25 kg/ha) | Wuchsshemmung in % bei Gerste (Gerste; 2,5 kg/ha) | Phytotox. Wirkung [1] | pest or weed control at 1250 g/ha (Roggen; 1,25 kg/ha) | pest or weed control at 2500 g/ha (Roggen; 2,5 kg/ha) | pest or weed control at 1250 g/ha (Weizen; 1,25 kg/ha) | pest or weed control at 2500 g/ha (Weizen; 2,5 kg/ha) | pest or weed control at 1250 g/ha (Gerste; 1,25 kg/ha) | pest or weed control at 2500 g/ha (Gerste; 2,5 kg/ha) | Phytotox. Wirkung (Reispflanzen [2]) | Phytotox. Wirkung (Sojabohnen [3]) | pest or weed control at 2500 g/ha (Sojabohnen [4]) | pest or weed control at 620 g/ha (Reispflanzen [5]) | pest or weed control at 1250 g/ha (Reispflanzen [5]) | Phytotox. Wirkung (Sojabohnen [4]) | Phytotox. Wirkung (Reispflanzen [5]) |
| --- | --- | --- | --- | --- | --- | --- | --- | --- | --- | --- | --- | --- | --- | --- | --- | --- | --- | --- | --- | --- |
| 2-Chlorethyltriethylammoniumchlorid [reference compound] | 0% | 10% | 23% | 27% | 0% | 8% | keine Schäden |  |  |  |  |  |  |  |  |  |  |  |  |  |
| CCc1cccc(CC)c1-n1cncc1C(=O)ON1C(=O)c2ccccc2C1=O [Beispiel 2, Pthalimido-1-(2,6-diethylphenyl)-imidazol-5-carboxylat] |  |  |  |  |  |  | keine Schäden | 21% | 27% | 12% | 23% | 18% | 37% | keine Schäden | keine Schäden | 20% | 25% | 22% |  |  |
| CCc1cccc(CC)c1-n1cncc1C(=O)NCCO [Beispiel 3, N-(2-Hydroxyethyl)-1-(2,6-diethylphenyl)-imidazol-5-carb-oxyamid] |  |  |  |  |  |  | keine Schäden | 20% | 26% | 13% | 22% | 17% | 35% | keine Schäden | keine Schäden | 21% | 16% | 21% |  |  |
| CCc1cccc(CC)c1-n1cncc1C(=O)OCSC [Beispiel 4, Methylthiomethyl-1-(2,6-diethylphenyl)-imidazol-5-carboxylat] |  |  |  |  |  |  | keine Schäden | 20% | 26% | 14% | 21% | 17% | 34% |  |  | 21% | 16% | 21% | keine Schäden | keine Schäden |
| CCc1cccc(CC)c1-n1cncc1-c1nnn[nH]1 [Beispiel 5, 1-(2,6-Diethylphenyl)-5-(5-tetrazolyl)-imidazol] |  |  |  |  |  |  | keine Schäden | 9% | 21% | 9% | 18% | 13% | 30% | keine Schäden | keine Schäden | 18% | 11% | 19% |  |  |
| CCc1cccc(CC)c1-n1cncc1C1=NC(C)(C)CO1 [Beispiel 6, 1-(2,6-Diethylphenyl)-5-(4,4-dimethyl-2-oxazolin-2-yl)-imidazol] |  |  |  |  |  |  | keine Schäden | 9% | 17% | 8% | 17% | 13% | 25% | keine Schäden | keine Schäden | 19% | 11% | 18% |  |  |
| CCc1cccc(CC)c1-n1cncc1-c1nc(C)no1 [Beispiel 7, 1-(2,6-Diethylphenyl)-5-(3-methyl-1,2,4-oxdiazol-5-yl)-imidazol] |  |  |  |  |  |  | keine Schäden | 21% | 28% | 15% | 24% | 19% | 39% | keine Schäden | keine Schäden | 26% | 15% | 24% |  |  |
| CCc1cccc(CC)c1-n1cncc1C(N)=NO [Beispiel 8, 1-(2,6-Diethylphenyl)-imidazol-5-carboxamidoxim] |  |  |  |  |  |  | keine Schäden | 17% | 25% | 12% | 22% | 18% | 34% | keine Schäden | keine Schäden | 21% | 12% | 22% |  |  |
| CCc1cccc(CC)c1-n1cncc1CO [Beispiel 12, 1-(2,6-Diethylphenyl)-5-hydroxymethyl-imidazol] |  |  |  |  |  |  | keine Schäden | 17% | 24% | 11% | 23% | 17% | 33% | keine Schäden | keine Schäden | 21% | 13% | 21% |  |  |
| CCc1cccc(CC)c1-n1cncc1C=O [Beispiel 13, 1-(2,6-Diethylphenyl)-5-formyl-imidazol] |  |  |  |  |  |  | keine Schäden | 19% | 27% | 15% | 24% | 19% | 37% | keine Schäden | keine Schäden | 25% | 16% | 24% |  |  |
| CCc1cccc(CC)c1-n1cncc1C=NO [Beispiel 14, 1-(2,6-Diethylphenyl)-5-hydroximinomethyl-imidazol] |  |  |  |  |  |  | keine Schäden | 13% | 24% | 11% | 19% | 16% | 32% |  |  | 20% | 13% | 21% | keine Schäden | keine Schäden |
| CCc1cccc(CC)c1-n1cncc1C(=O)OC1CCCCC1 [Beispiel 36] |  |  |  |  |  |  | keine Schäden | 13% | 23% | 10% | 19% | 17% | 33% | keine Schäden | keine Schäden | 19% | 14% | 21% |  |  |
| C#CCOC(=O)c1cncn1-c1c(CC)cccc1CC [Beispiel 37] |  |  |  |  |  |  | keine Schäden | 7% | 19% | 8% | 15% | 12% | 25% |  |  | 17% | 11% | 19% | keine Schäden | keine Schäden |
| CCc1cccc(CC)c1-n1cncc1C(=O)ON=C(C)C [Beispiel 40] |  |  |  |  |  |  | keine Schäden | 21% | 27% | 16% | 25% | 19% | 38% | keine Schäden | keine Schäden | 26% | 18% | 25% |  |  |
| CCc1cccc(CC)c1-n1cncc1C(=O)ON=C(C)C(C)C [Beispiel 42] |  |  |  |  |  |  | keine Schäden | 14% | 19% | 12% | 21% | 16% | 31% | keine Schäden | keine Schäden | 19% | 14% | 19% |  |  |
